Test results: patent US10912827B2 (priority 2016, dated 2021)
Where two headings read alike, the source gives them in different places.

Tests used:
[1] = tested on: HBV-transgenic mice (Strain HBV1.3.32); settings: mouse, in vivo
[2] = tested on: HBV-transgenic mice (Strain HBV1.3.32); assay type: in vivo, mouse
[3] = tested on: HBVtg mice; settings: mouse, in vivo
[4] = tested on: chronic Hepatitis B virus (HBV)-infection; settings: cited from earlier work
[5] = middle and high antigenemic HBVtg mice, day 34

Row | Compound | adjuvant efficacy for therapeutic protein prime-MVA boost vaccination [1] | difference in magnitude of HBV-specific CD8+ T cell responses between c-di-AMP and CpG/PCEP regimens [1] | efficacy as adjuvant for therapeutic protein prime-MVA boost vaccination [1] | efficacy in i.m. versus s.c./i.p. application routes [1] | titers of anti-HBc antibodies, c-di-AMP compared to CpG/PCEP regimen ([2]; day 34, p<0.05) | impact on serum HBeAg levels ([2]; high antigenemic HBVtg mice, HBsAg+HBcAg prime twice, MVA-S/core boost day 28, day 34) | HBV replication, detected indirectly by HBeAg levels ([2]; i.m. route) | HBsAg to anti-HBs seroconversion [2, 5] | anti-HBc responses [2, 5] | HBV replication, detected indirectly by HBeAg levels ([2]; s.c./i.p. routes) | liver damage / increase in ALT [3] | patients in whom therapy is curative [4]
1 | Nc1ncnc2c1ncn2[C@@H]1O[C@@H]2COP(=O)(O)O[C@H]3[C@@H](O)[C@H](n4cnc5c(N)ncnc54)O[C@@H]3COP(=O)(O)O[C@H]2[C@H]1O [c-di-AMP, bis-(3′,5′)-cyclic dimeric adenosine monophosphate] | potent adjuvant | no statistically significant difference | very potent adjuvant | equally effective | significantly higher titers | Neither c-di-AMP nor CpG/PCEP immunization protocol had an impact | lower HBV replication | HBsAg to anti-HBs seroconversion in all examined HBVtg mice | significant anti-HBc responses | lower HBV replication | mild T-cell-induced liver damage | –
2 | Interferon α | – | – | – | – | – | – | – | – | – | – | – | 15-20%
